Source: PubChem BioAssay (NCI)
“And” between values parts separate entries of the source, which are not always exact repeats. Equal values may be shown once.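 Results reflect a 48-hour exposure of cells in 96-well plates to compound at five concentrations. At the GI50, growth is halved. TGI is the concentration that stops growth completely.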 Where a SMILES comes first, the peptide text is derived from it. The star is where a group is joined. X36 = O=C(c1ccc(-c2ccc(Cl)cc2Cl)o1)*

Key:
Experiment in all cases: growth of human tumour cells (NCI), 48 h
HOP-62 NSCLC = test system: HOP-62 NSCLC
SF-539 CNS = test system: SF-539 CNS
UO-31 renal = test system: UO-31 renal
MOLT-4 leukemia = test system: MOLT-4 leukemia
MDA-N = test system: MDA-N
MCF7 breast = test system: MCF7 breast
786-0 renal = test system: 786-0 renal
HT29 colon = test system: HT29 colon
SK-OV-3 ovarian = test system: SK-OV-3 ovarian
KM12 colon = test system: KM12 colon

| Compound | GI50 (HOP-62 NSCLC) | TGI (HOP-62 NSCLC) | GI50 (SF-539 CNS) | TGI (SF-539 CNS) | TGI (UO-31 renal) | TGI (MOLT-4 leukemia) [µM] | GI50 (MDA-N) | TGI (MDA-N) [µM] | TGI (MCF7 breast) [µM] | TGI (786-0 renal) | TGI (HT29 colon) | GI50 (SK-OV-3 ovarian) | TGI (SK-OV-3 ovarian) | GI50 (KM12 colon) | TGI (KM12 colon) |
| --- | --- | --- | --- | --- | --- | --- | --- | --- | --- | --- | --- | --- | --- | --- | --- |
| COc1cc(CNc2ccc(SC)cc2)cc(OC)c1OC | 12.1 µM and 4.68 µM | > 100 µM and 61.1 µM | 11.4 µM and 3.06 µM | 44.4 µM and 12.3 µM | 83.1 µM and 51.1 µM | > 100 | 3.35 µM and 1.05 µM | 7.15 | > 100 | 77.2 µM and 65.8 µM | 29.9 µM and 14.5 µM | 15.4 µM and 5.05 µM | 64.2 µM and 44.6 µM | 4.44 µM and 2.21 µM | > 62.7 µM and 20.7 µM |
| Cc1ccc2nc(Cl)c(/C=N/N3C(=O)/C(=C/c4ccccc4S)N=C3c3ccccc3)cc2c1 |  | > 100 µM |  | 43 µM | > 100 µM | 15.1 |  | 40.5 | > 100 | > 100 µM | > 100 µM |  | > 100 µM |  | > 100 µM |
| C=CCCC(=O)CC(O)(C(F)(F)F)C(F)(F)F |  |  |  | > 100 µM | > 100 µM | > 100 |  | > 100 | > 100 | > 100 µM | > 100 µM |  | > 100 µM |  | > 100 µM |
| CCC(C)C(NC(=O)CNC(=O)C(Cc1ccccc1)NC(=O)C1CCCN1C(=O)c1ccc(-c2ccc(Cl)cc2Cl)o1)C(=O)OC (configuration not stated) (X36-PFGI-OMe; configuration not given here) |  | > 100 µM |  | 86.6 µM | > 100 µM | > 100 |  | > 100 | > 100 | > 100 µM | > 100 µM |  | > 100 µM |  | > 100 µM |
| O=C1c2ccccc2-c2nc(-c3cccc([N+](=O)[O-])c3)nnc21 |  |  |  | > 100 µM | 42.2 µM | > 100 |  | 5.49 | > 100 | > 100 µM | 5.43 µM |  | > 100 µM |  | > 100 µM |
| C/C=C/C(O)P1(=O)N(Cc2ccccc2)[C@@H]2CCCC[C@H]2N1Cc1ccccc1 (some centres not stated) |  | > 25 µM |  | > 25 µM | > 25 µM | > 25 |  | > 25 | > 25 | > 25 µM | > 25 µM |  | > 25 µM |  | > 25 µM |
| CC(=O)O[C@H]1C#C/C=C\C#CC[C@@H]2C(=O)N[C@@H]12 |  | > 72.6 µM |  | 5.39 µM | > 62.8 µM | > 100 |  | > 100 | > 100 | > 88.3 µM | > 100 µM |  | > 100 µM |  | > 100 µM |
| CCN1C(=O)C(=C/C=C/c2ccc([N+](=O)[O-])cc2)C(=O)N(CC)C1=S |  | 39.2 µM |  | 40.1 µM | 37.2 µM | > 100 |  | 67 | 52.5 | 34.3 µM | 50.7 µM |  | > 100 µM |  | 60.7 µM |
| COC(=O)C1=CC(=O)OC1(OO)c1ccccc1 (configuration not stated) |  |  |  | > 100 µM | > 100 µM | > 100 |  | > 100 | > 100 | > 100 µM | > 100 µM |  | > 100 µM |  | > 100 µM |
| CCC1(C)N=C(c2cnccn2)NN1c1ccc(Cl)cc1 (configuration not stated) |  | > 100 µM |  | > 100 µM | > 100 µM | > 100 |  | > 100 | > 100 | > 100 µM | > 100 µM |  | > 100 µM |  | > 100 µM |
| O=C1CCCCC(=O)OC2(CCCCC2=O)CC1 (configuration not stated) |  | > 100 µM |  | > 100 µM | > 100 µM | > 100 |  | > 100 | > 100 | > 100 µM | > 100 µM |  | > 100 µM |  | > 100 µM |
| N#C/C(=C\n1ccc(=O)[nH]c1=S)C(N)=O |  | > 100 µM |  | > 100 µM | > 100 µM | > 100 |  | > 100 | > 100 | > 100 µM | > 100 µM |  | > 100 µM |  | > 100 µM |
| Nc1ccc(N=Nc2ccccc2)cc1 |  | > 100 µM |  | > 100 µM | > 100 µM | > 100 |  | > 100 | > 100 | > 100 µM | > 100 µM |  | > 100 µM |  | > 100 µM |
| Cc1ccc2c(=O)cc(-c3cccs3)[nH]c2n1 |  | > 100 µM |  | 33.1 µM | 35.6 µM | > 100 |  | 3.78 | > 100 | > 100 µM | > 70.9 µM |  | > 100 µM |  | > 100 µM |
| CC1Cn2c(nc3ccccc32)NC1=O (configuration not stated) |  | > 100 µM |  | > 100 µM | > 100 µM | > 100 |  | > 100 | > 100 | > 100 µM | > 100 µM |  | > 100 µM |  | > 100 µM |
| COc1ccc(/C=N/N=C(\N)NO)c(O)c1 |  | > 10 µM |  | > 10 µM | > 10 µM | > 10 |  | > 10 | > 10 | > 10 µM | > 10 µM |  | > 10 µM |  | > 10 µM |
| N#Cc1nc(-c2cccs2)oc1N |  | > 100 µM |  | > 100 µM | > 100 µM | > 100 |  | > 100 | > 100 | > 100 µM | > 100 µM |  | > 100 µM |  | > 100 µM |
